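Assay format: 96-well plates, 48-hour exposure. GI50 = concentration required for 50% inhibition of growth.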 Active and inactive are the calls of the source. Cut-off read from the data, not from the text of the source: active = GI50 up to about 1.1 µM and inactive = higher.

Data on nine molecules can be found in ChEMBL document CHEMBL1201862, “PubChem BioAssay data set” (2004).

Some test systems named below: A549; CCRF-CEM; COLO 205; EKVX; HCT-116; HCT-15; K562; KM12; MCF7; MDA-MB-435; MOLT-4; NCI-H23; PC-3; SK-MEL-28; SNB-19; SW-620; TK-10; U-251.
Experiment in all cases: growth of human tumour cells (NCI), 48 h

Turning to `C=C(CCC/C(C)=C/C=C/[C@]1(C)CCCc2ccoc21)CC(=O)O`, the GI50 in the assay with A549 is > 100 µM (inactive); in the assay with CCRF-CEM, 50 µM (inactive); with COLO 205, > 100 µM (inactive); in the assay with EKVX, > 100 µM (inactive); with HCT-116 it was 60 µM (inactive); with HCT-15, 98.9 µM. Also, the GI50 was 84.3 µM (inactive) in the assay on K562; > 100 µM (inactive) with KM12; 82.6 µM (inactive) in the assay on MCF7; > 100 µM (inactive) with MDA-MB-435; 38.7 µM (inactive) in the assay with MOLT-4; > 100 µM (inactive) with NCI-H23. The GI50 in the assay on PC-3 is 90.6 µM (inactive); in the assay with SK-MEL-28, > 100 µM (inactive); in the assay with SNB-19, > 100 µM (inactive); in the assay with SW-620, > 100 µM (inactive); with TK-10 it was > 100 µM (inactive); with U-251 it was 68.4 µM (inactive).

For `COc1ccc(N2/C(=N/c3ccccc3)SC(=N/S(=O)(=O)c3ccccc3)/C2=N\S(=O)(=O)c2ccccc2)cc1`, the GI50 in the assay on A549 was 18.5 µM (inactive); in the assay on CCRF-CEM it was 20 µM (inactive); in the assay with COLO 205, 16.4 µM (inactive); in the assay with EKVX, 22.6 µM (inactive); in the assay with HCT-116, 12.6 µM (inactive); with HCT-15 it was 13.3 µM. Also, the GI50 with K562 was 16.9 µM (inactive); with KM12, 38.8 µM (inactive); with MCF7, 18.7 µM (inactive); with MOLT-4, 17.8 µM (inactive); in the assay on NCI-H23, 12.9 µM (inactive); with PC-3, 16.7 µM (inactive). For the same molecule, the GI50 with SK-MEL-28 is 14.5 µM (inactive); in the assay with SNB-19, 18.7 µM (inactive); in the assay on SW-620, 34.8 µM (inactive); with TK-10 it was 20.1 µM (inactive); in the assay on U-251 it was 16.7 µM (inactive).

Consider `OC1CCN(c2c3ccccc3nc3ccccc23)CC1`, for which the GI50 in the assay on A549 was 44.4 µM (inactive); in the assay on COLO 205 it was 3.13 µM (inactive); with EKVX, 55.2 µM (inactive); in the assay on HCT-116, 4.84 µM (inactive); in the assay with HCT-15, 16.5 µM; in the assay on K562 it was 4.01 µM (inactive). Further, the GI50 in the assay with KM12 is 37.2 µM (inactive); in the assay on MCF7 it was 2.79 µM (inactive); with MDA-MB-435, 19.7 µM (inactive); in the assay on MOLT-4, 4.73 µM (inactive); in the assay on NCI-H23, 8.02 µM (inactive); with PC-3, 25.5 µM (inactive). Besides, the GI50 was 2.69 µM (inactive) with SK-MEL-28; 27.9 µM (inactive) in the assay with SNB-19; 3.36 µM (inactive) with SW-620; 4.03 µM (inactive) in the assay on TK-10; 21.5 µM (inactive) with U-251.

As for `CCN(CC)CC(C(=O)Nc1c(C)cccc1C)/C(C)=N\NC(=S)NN` (stereo not given), the GI50 in the assay on A549, in the assay on CCRF-CEM, in the assay with COLO 205, in the assay on EKVX, in the assay with HCT-116 and in the assay on K562 was > 100 µM (inactive) throughout. Moreover, the GI50 in the assay on KM12, with MOLT-4, in the assay with NCI-H23, in the assay with SK-MEL-28, in the assay with SW-620 and in the assay on TK-10 was > 100 µM (inactive) each time. The GI50 with U-251 is > 100 µM (inactive).

Turning to `CCOC(=O)NC(=O)c1cn(C2CCCCC2)c(=O)[nH]c1=O`, the GI50 was 58.7 µM (inactive) with A549; 33.3 µM (inactive) in the assay with CCRF-CEM; 98.9 µM (inactive) in the assay with COLO 205; > 100 µM (inactive) in the assay on EKVX; 5.11 µM (inactive) in the assay with HCT-116; 53.8 µM with HCT-15. In addition, the GI50 with K562 was 4.9 µM (inactive); in the assay with KM12 it was 78.2 µM (inactive); in the assay on MOLT-4 it was 41.8 µM (inactive); in the assay with NCI-H23, > 100 µM (inactive); with SK-MEL-28, > 100 µM (inactive); in the assay on SNB-19, > 100 µM (inactive). The GI50 in the assay on SW-620 was 17.4 µM (inactive); in the assay with TK-10, > 100 µM (inactive); in the assay with U-251 it was 56.8 µM (inactive).

For the molecule `CC(C)(C)C(=O)C(c1ccc(-c2cscn2)cc1)c1ccc(-c2cscn2)cc1`, the GI50 is 29.6 µM (inactive) in the assay on A549; > 100 µM (inactive) in the assay with CCRF-CEM; > 89.7 µM (inactive) in the assay with COLO 205; 33.3 µM (inactive) with EKVX; 44 µM (inactive) in the assay on HCT-116; above 95.1 µM with HCT-15. The GI50 with K562 was > 92.9 µM (inactive); in the assay on KM12 it was > 83.9 µM (inactive); with MOLT-4, > 100 µM (inactive); in the assay on NCI-H23, 30.5 µM (inactive); in the assay on SK-MEL-28 it was 46.3 µM (inactive); with SNB-19, 28.1 µM (inactive). The GI50 in the assay with SW-620 was > 100 µM (inactive); in the assay with TK-10 it was 31.9 µM (inactive); in the assay with U-251, 20.7 µM (inactive).

Turning to `COc1cc2c[n+]3ccc4cc(OC)c(OC)cc4c3cc2cc1O`, the GI50 in the assay with A549 was > 100 µM (inactive); in the assay on CCRF-CEM it was > 100 µM (inactive); with EKVX it was > 100 µM (inactive); with HCT-116, > 100 µM (inactive); in the assay on HCT-15 it was above 100 µM; with K562, > 100 µM (inactive). Further, the GI50 in the assay on KM12, in the assay on MOLT-4, in the assay on NCI-H23, with SK-MEL-28, in the assay with SNB-19 and in the assay with SW-620 was > 100 µM (inactive) each time. The GI50 with TK-10 and with U-251 was > 100 µM (inactive) each time.

For the molecule `OC1CCC(C2C3CCCCC3C3CCCCC3C2C2CCC(O)CC2)CC1` (stereo not given), the GI50 in the assay on A549 is 4.18 µM (inactive); in the assay with COLO 205 it was 2.22 µM (inactive); in the assay with EKVX, 9.89 µM (inactive); in the assay with HCT-116, 4.52 µM (inactive); in the assay on HCT-15, 2.49 µM; in the assay with K562 it was 4.69 µM (inactive). For the same molecule, the GI50 in the assay on KM12 was 3.33 µM (inactive); in the assay on MCF7 it was 3.4 µM (inactive); with MDA-MB-435, 4.19 µM (inactive); in the assay with MOLT-4, 4.39 µM (inactive); with NCI-H23, 3.08 µM (inactive); with PC-3, 5.31 µM (inactive). For the same molecule, the GI50 in the assay with SK-MEL-28 was 3.83 µM (inactive); in the assay on SNB-19, 6.44 µM (inactive); in the assay on SW-620, 3.99 µM (inactive); with TK-10, 5.18 µM (inactive); in the assay with U-251 it was 3.6 µM (inactive).

As to `CCOC(=O)C(=O)Nc1nc2ccc(OC)cc2s1`, the GI50 is > 100 µM (inactive) in the assay with A549; > 100 µM (inactive) with CCRF-CEM; > 100 µM (inactive) in the assay on COLO 205; > 100 µM (inactive) in the assay on EKVX; above 100 µM with HCT-15; > 100 µM (inactive) with K562. In addition, the GI50 in the assay with KM12, with MOLT-4, in the assay with NCI-H23, with SK-MEL-28, in the assay on SNB-19 and in the assay on SW-620 was > 100 µM (inactive) in each case. Also, the GI50 in the assay with TK-10 and with U-251 was > 100 µM (inactive) throughout.
